As a reminder, the CC50 is the concentration that lowers cell viability or growth by half.

One test relates to HCT116 MTAP-deleted cell lines. The test is described as follows: Cell viability assay (CellTiter-Glo, 7 days), HCT116 MTAP-deleted. The conditions noted are these: Homo sapiens, HCT-116. Type of test: cell-based. In outline:
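Read-out was CellTiter-Glo luminescence after a 7-day incubation (37 °C, 5% CO2) of HCT116 cells, MTAP-deleted or WT, on dose-response compound plates. CC50 values come from each line; where marked *, selectivity is overstated because poor solubility impaired the WT CC50 measurement.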
In turn, `Nc1nc2cc(F)c(C(=O)N3CC4(CCC3c3ccc(C(F)(F)F)cn3)CC4)cc2n2cncc12` (stereo not shown) [Ff-149, (4-amino-7-fluoroimidazo[1,5-a]quinoxalin-8-yl)(6-(5-(trifluoromethyl)pyridin-2-yl)-5-azaspiro[2.5]octan-5-yl)methanone] gave a CC50 of less than 100 nM.

The same test, now with this note: Homo sapiens, HCT-116; cell viability, HCT116 MTAP-deleted; class symbols; read-out: CC50.
Consider `CC(=O)N1CCN(C(=O)c2cc3c(cc2F)nc(N)c2cncn23)C(c2ccc(C(F)(F)F)cn2)C1` (stereo not shown) [Ff-134, 1-(4-(4-amino-7-fluoroimidazo[1,5-a]quinoxaline-8-carbonyl)-3-(5-(trifluoromethyl)pyridin-2-yl)piperazin-1-yl)ethan-1-one], for which the CC50 was 100 to 1000 nM.

In the case of `CS(=O)(=O)N1CCN(C(=O)c2cc3c(cc2F)nc(N)c2cncn23)C(c2ccc(C(F)(F)F)cn2)C1` (stereo not shown) [Ff-135, (4-amino-7-fluoroimidazo[1,5-a]quinoxalin-8-yl)(4-(methylsulfonyl)-2-(5-(trifluoromethyl)pyridin-2-yl)piperazin-1-yl)methanone], the 50% cytotoxic concentration (CC50) is 100 to 1000 nM.

As to `CN1CCN(C(=O)c2cc3c(cc2F)nc(N)c2cncn23)C(c2ccc(C(F)(F)F)cn2)C1` (stereo not shown) [Ff-136, (4-amino-7-fluoroimidazo[1,5-a]quinoxalin-8-yl)(4-methyl-2-(5-(trifluoromethyl)pyridin-2-yl)piperazin-1-yl)methanone], the CC50 lay in the range of 100 to 1000 nM.

Turning to `Cc1ncn2c1c(N)nc1cc(F)c(C(=O)N3CCOC[C@@H]3c3ccc(C(F)(F)F)cc3)cc12` [Ff-137], the 50% cytotoxic concentration (CC50) is less than 100 nM.

Consider `Nc1nc2cc(F)c(C(=O)N3CCCC[C@@H]3c3ccc(C(F)(F)F)cc3)cc2n2cncc12` [Ff-139, (R)-(4-amino-7-fluoroimidazo[1,5-a]quinoxalin-8-yl)(2-(4-(trifluoromethyl)phenyl)piperidin-1-yl)methanone], for which the CC50 is less than 100 nM.

With `Nc1nc2cc(F)c(C(=O)N3CCN(C4COC4)CC3c3ccc(C(F)(F)F)cn3)cc2n2cncc12` (stereo not shown) [Ff-140, (4-amino-7-fluoroimidazo[1,5-a]quinoxalin-8-yl)(4-(oxetan-3-yl)-2-(5-(trifluoromethyl)pyridin-2-yl)piperazin-1-yl)methanone], the CC50 is 100 to 1000 nM.

`Nc1nc2cc(F)c(C(=O)N3CCCCC3c3ccc(C(F)(F)F)cc3F)cc2n2cncc12` (stereo not shown) [Ff-141, (4-amino-7-fluoroimidazo[1,5-a]quinoxalin-8-yl)(2-(2-fluoro-4-(trifluoromethyl)phenyl)piperidin-1-yl)methanone]: the CC50 was less than 100 nM.

Regarding `C[C@@H]1COC[C@H](c2ccc(C(F)(F)F)cn2)N1C(=O)c1cc2c(cn1)nc(N)c1cncn12` [Ff-142, (4-aminoimidazo[1,5-a]pyrido[3,4-e]pyrazin-8-yl)((3R,5S)-3-methyl-5-(5-(trifluoromethyl)pyridin-2-yl)morpholino)methanone], the CC50 was less than 100 nM.

For `COc1cc(C(F)(F)F)ccc1C1CCCCN1C(=O)c1cc2c(cc1F)nc(N)c1cncn12` (stereo not shown) [Ff-143, (4-amino-7-fluoroimidazo[1,5-a]quinoxalin-8-yl)(2-(2-methoxy-4-(trifluoromethyl)phenyl)piperidin-1-yl)methanone], the CC50 lay within 100 to 1000 nM.

In the case of `CN(C(=O)c1cc2c(cc1F)nc(N)c1cncn12)[C@@H]1COc2cc(-c3cnn(C4COC4)c3)ccc21` [Ff-145, (S)-4-amino-7-fluoro-N-methyl-N-(6-(1-(oxetan-3-yl)-1H-pyrazol-4-yl)-2,3-dihydrobenzofuran-3-yl)imidazo[1,5-a]quinoxaline-8-carboxamide], the CC50 is less than 100 nM.

Regarding `CC(C)N(Cc1ccc(-c2cnn(-c3ccccn3)c2)cc1F)C(=O)c1cc2c(cc1F)nc(N)c1cncn12` [Ff-147, 4-amino-7-fluoro-N-(2-fluoro-4-(1-(pyridin-2-yl)-1H-pyrazol-4-yl)benzyl)-N-isopropylimidazo[1,5-a]quinoxaline-8-carboxamide], the CC50 was less than 100 nM.

Regarding `CC(C)N(Cc1ccc(-c2cnn(-c3cccnc3)c2)cc1F)C(=O)c1cc2c(cc1F)nc(N)c1cncn12` [Ff-148, 4-amino-7-fluoro-N-(2-fluoro-4-(1-(pyridin-3-yl)-1H-pyrazol-4-yl)benzyl)-N-isopropylimidazo[1,5-a]quinoxaline-8-carboxamide], the CC50 was less than 100 nM.

Consider `CN(C(=O)c1cc2c(cc1F)nc(N)c1cncn12)[C@@H]1COc2cc(-c3cnn4c3COCC4)ccc21` [Ff-150, (S)-4-amino-N-(6-(6,7-dihydro-4H-pyrazolo[5,1-c][1,4]oxazin-3-yl)-2,3-dihydrobenzofuran-3-yl)-7-fluoro-N-methylimidazo[1,5-a]quinoxaline-8-carboxamide], for which the CC50 was less than 100 nM.

In the case of `C[C@H](c1ccc(C(F)(F)F)cn1)N(C(=O)c1cc2c(cc1F)nc(N)c1cncn12)C1CC1` [Ff-153, (R)-4-amino-N-cyclopropyl-7-fluoro-N-(1-(5-(trifluoromethyl)pyridin-2-yl)ethyl)imidazo[1,5-a]quinoxaline-8-carboxamide], the CC50 was less than 100 nM.

As for `CN(C(=O)c1cc2c(cc1F)nc(N)c1cncn12)C1COc2c1ccc1c2OC(F)(F)O1` (stereo not shown) [Ff-156, 4-amino-N-(2,2-difluoro-6,7-dihydro-[1,3]dioxolo[4,5-g]benzofuran-6-yl)-7-fluoro-N-methylimidazo[1,5-a]quinoxaline-8-carboxamide], the CC50 lay in the range of 100 to 1000 nM.

On to `CN(C(=O)c1cc2c(cc1F)nc(N)c1cncn12)C1COc2c1ccc(C(F)(F)F)c2Cl` (stereo not shown) [Ff-158, 4-amino-N-(7-chloro-6-(trifluoromethyl)-2,3-dihydrobenzofuran-3-yl)-7-fluoro-N-methylimidazo[1,5-a]quinoxaline-8-carboxamide], for which the CC50 is less than 100 nM.

On to `Nc1nc2cc(F)c(C(=O)N3CCO[C@@H]4Cc5c(ccc(Br)c5F)[C@@H]43)cc2n2cncc12` [Ff-159, (4-amino-7-fluoroimidazo[1,5-a]quinoxalin-8-yl)((4aS,9aR)-7-bromo-8-fluoro-2,3,9,9a-tetrahydroindeno[2,1-b][1,4]oxazin-4(4aH)-yl)methanone], for which the CC50 was less than 100 nM.

For `Nc1nc2cc(F)c(C(=O)N3CCO[C@@H]4Cc5cc(Br)c(F)cc5[C@@H]43)cc2n2cncc12` [Ff-160, (4-amino-7-fluoroimidazo[1,5-a]quinoxalin-8-yl)((4aS,9aR)-7-bromo-6-fluoro-2,3,9,9a-tetrahydroindeno[2,1-b][1,4]oxazin-4(4aH)-yl)methanone], the CC50 was less than 100 nM.

`Nc1nc2cc(F)c(C(=O)N3CCO[C@@H]4Cc5c(cc(F)c(Br)c5F)[C@@H]43)cc2n2cncc12` [Ff-161, (4-amino-7-fluoroimidazo[1,5-a]quinoxalin-8-yl)((4aS,9aR)-7-bromo-6,8-difluoro-2,3,9,9a-tetrahydroindeno[2,1-b][1,4]oxazin-4(4aH)-yl)methanone]: the CC50 lay in the range of 100 to 1000 nM.

In the case of `Nc1nc2cnc(C(=O)N3CCO[C@@H]4Cc5c(cc(F)c(Br)c5F)[C@@H]43)cc2n2cncc12` [Ff-162, (4-aminoimidazo[1,5-a]pyrido[3,4-e]pyrazin-8-yl)((4aS,9aR)-7-bromo-6,8-difluoro-2,3,9,9a-tetrahydroindeno[2,1-b][1,4]oxazin-4(4aH)-yl)methanone], the CC50 was 100 to 1000 nM.

In the case of `CN(C(=O)c1cc2c(cc1F)nc(N)c1cncn12)[C@@H]1CCc2cc(C(F)F)ccc21` [Ff-166, (R)-4-amino-N-(5-(difluoromethyl)-2,3-dihydro-1H-inden-1-yl)-7-fluoro-N-methylimidazo[1,5-a]quinoxaline-8-carboxamide], the CC50 is less than 100 nM.

On to `Nc1nc2cc(F)c(C(=O)N3CCO[C@@H]4Cc5cc(C(F)F)c(F)cc5[C@@H]43)cc2n2cncc12` [Ff-168, (4-amino-7-fluoroimidazo[1,5-a]quinoxalin-8-yl)((4aS,9aR)-7-(difluoromethyl)-6-fluoro-2,3,9,9a-tetrahydroindeno[2,1-b][1,4]oxazin-4(4aH)-yl)methanone], for which the CC50 was less than 100 nM.

On to `Nc1nc2cc(F)c(C(=O)N3CCO[C@@H]4Cc5c(ccc(C(F)F)c5F)[C@@H]43)cc2n2cncc12` [Ff-169, (4-amino-7-fluoroimidazo[1,5-a]quinoxalin-8-yl)((4aS,9aR)-7-(difluoromethyl)-8-fluoro-2,3,9,9a-tetrahydroindeno[2,1-b][1,4]oxazin-4(4aH)-yl)methanone], for which the CC50 was less than 100 nM.

Take `C[C@@H]1CN(C(=O)c2cc3c(cc2F)nc(N)c2cncn23)[C@H]2c3ccc(C(F)F)c(F)c3C[C@H]2O1` [Ff-170, (4-amino-7-fluoroimidazo[1,5-a]quinoxalin-8-yl)((2R,4aS,9aR)-7-(difluoromethyl)-8-fluoro-2-methyl-2,3,9,9a-tetrahydroindeno[2,1-b][1,4]oxazin-4(4aH)-yl)methanone]: the CC50 was less than 100 nM.

Turning to `C[C@H]1CN(C(=O)c2cc3c(cc2F)nc(N)c2cncn23)[C@H]2c3cc(F)c(OC(F)F)cc3C[C@H]2O1` [Ff-175, (4-amino-7-fluoroimidazo[1,5-a]quinoxalin-8-yl)((2S,4aS,9aR)-7-(difluoromethoxy)-6-fluoro-2-methyl-2,3,9,9a-tetrahydroindeno[2,1-b][1,4]oxazin-4(4aH)-yl)methanone], the CC50 was less than 100 nM.

For `Nc1nc2cc(F)c(C(=O)N3CCO[C@@H]4Cc5cc(OC(F)(F)F)c(F)cc5[C@@H]43)cc2n2cncc12` [Ff-176, (4-amino-7-fluoroimidazo[1,5-a]quinoxalin-8-yl)((4aS,9aR)-6-fluoro-7-(trifluoromethoxy)-2,3,9,9a-tetrahydroindeno[2,1-b][1,4]oxazin-4(4aH)-yl)methanone], the CC50 was less than 100 nM.

`Nc1nc2ccc(C(=O)N3CCO[C@@H]4Cc5cc(OC(F)(F)F)c(F)cc5[C@@H]43)cc2n2cncc12` [Ff-177, (4-aminoimidazo[1,5-a]quinoxalin-8-yl)((4aS,9aR)-6-fluoro-7-(trifluoromethoxy)-2,3,9,9a-tetrahydroindeno[2,1-b][1,4]oxazin-4(4aH)-yl)methanone]: the CC50 is less than 100 nM.
